# Data published in PMC9090415, “Discovery of small molecule inhibitors of Plasmodium falciparum apicoplast DNA polymerase” (Journal of Enzyme Inhibition and Medicinal Chemistry, 2022).
# Target: P. falciparum apicoplast DNA polymerase (Pf-apPOL) (Plasmodium falciparum, UniProt Q8ILY1)
# Test: Fluorescence-based high-throughput DNA polymerase assay (molecular beacon), primary screen and dose-response
# Assay type: biochemical
# Details: for DNA Pol: 90 min, 10 µM; for % inhibition apPOL 180' 2.5 / % inhibition apPOL 180' 5 / % inhibition apPOL 180' 10 / % inhibition apPOL 180' 20 / % inhibition apPOL 180' 40 / % inhibition apPOL 180' 80: read at 180'
# Method in brief: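 Single-point screening used 10 µM compound with 20 nM polymerase, 20 nM hairpin substrate and 6 µM dNTPs for 90 min at 25 °C. Confirmatory titrations (2.5–80 µM) followed fluorescence at three times, and IC50 was derived from a fit including a cooperativity term n.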
# [1] = first dose-response, concentration 10
# Sequence of P. falciparum apicoplast DNA polymerase (Pf-apPOL) (Q8ILY1 entry or part of it): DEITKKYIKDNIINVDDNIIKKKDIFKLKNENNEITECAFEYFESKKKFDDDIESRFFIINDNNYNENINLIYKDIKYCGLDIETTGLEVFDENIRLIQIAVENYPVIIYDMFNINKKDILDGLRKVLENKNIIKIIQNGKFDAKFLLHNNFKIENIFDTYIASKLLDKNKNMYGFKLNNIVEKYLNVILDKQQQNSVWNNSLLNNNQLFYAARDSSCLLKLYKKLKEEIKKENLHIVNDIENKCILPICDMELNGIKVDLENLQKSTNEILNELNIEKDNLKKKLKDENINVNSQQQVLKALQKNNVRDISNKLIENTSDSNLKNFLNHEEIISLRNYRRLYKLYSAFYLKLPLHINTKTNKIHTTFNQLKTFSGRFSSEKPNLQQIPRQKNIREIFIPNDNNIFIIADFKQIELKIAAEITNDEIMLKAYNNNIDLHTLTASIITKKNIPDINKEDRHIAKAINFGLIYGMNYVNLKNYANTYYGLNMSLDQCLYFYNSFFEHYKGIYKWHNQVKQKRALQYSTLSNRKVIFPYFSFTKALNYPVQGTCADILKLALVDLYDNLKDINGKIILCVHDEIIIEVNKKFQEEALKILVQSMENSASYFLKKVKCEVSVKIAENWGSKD
structure (smiles),measurement,setting,value
"O=C(O)CCS(=O)(=O)c1ccc(-c2ccc(S(=O)(=O)CCC(=O)O)cc2)cc1 [Molecule 32, OC(=O)CCS(=O)(=O)c1ccc(cc1)c1ccc(cc1)S(=O)(=O)CCC(=O)O]",DNA Pol,"""DNA Pol"" of the 186 hits list (screen value)",40
same,% inhibition Apo pol 10',"DRC-1, concentration 2.5",22.5031%
same,% inhibition Apo pol 10',"DRC-1, concentration 5",45.6696%
same,% inhibition Apo pol 10',"DRC-1, concentration 10",64.9587%
same,% inhibition Apo pol 10',"DRC-1, concentration 20",75.2971%
same,% inhibition Apo pol 10',"DRC-1, concentration 40",82.8671%
same,% inhibition Apo pol 10',"DRC-1, concentration 80",87.3536%
same,% inhibition Apol 90',"DRC-1, concentration 2.5",7.663%
same,% inhibition Apol 90',"DRC-1, concentration 5",20.8234%
same,% inhibition Apol 90',"DRC-1, concentration 10",43.1445%
same,% inhibition Apol 90',"DRC-1, concentration 20",59.5248%
same,% inhibition Apol 90',"DRC-1, concentration 40",71.1176%
same,% inhibition Apol 90',"DRC-1, concentration 80",79.0648%
same,% inhibition apPOL 180',"DRC-1, concentration 2.5",-2.177%
same,% inhibition apPOL 180',"DRC-1, concentration 5",7.502%
same,% inhibition apPOL 180',"DRC-1, concentration 10",30.5046%
same,% inhibition apPOL 180',"DRC-1, concentration 20",50.8957%
same,% inhibition apPOL 180',"DRC-1, concentration 40",64.8259%
same,% inhibition apPOL 180',"DRC-1, concentration 80",73.8924%
same,% inhibition Apo pol 5',"DRC-2, concentration 2.5",15%
same,% inhibition Apo pol 5',"DRC-2, concentration 5",24%
same,% inhibition Apo pol 5',"DRC-2, concentration 10",39%
same,% inhibition Apo pol 5',"DRC-2, concentration 20",43%
same,% inhibition Apo pol 5',"DRC-2, concentration 40",49%
same,% inhibition Apo pol 5',"DRC-2, concentration 80",51%
same,% inhibition Apol 40',"DRC-2, concentration 2.5",10%
same,% inhibition Apol 40',"DRC-2, concentration 5",15%
same,% inhibition Apol 40',"DRC-2, concentration 10",31%
same,% inhibition Apol 40',"DRC-2, concentration 20",40%
same,% inhibition Apol 40',"DRC-2, concentration 40",53%
same,% inhibition Apol 40',"DRC-2, concentration 80",63%
same,% inhibition ApPOL 90',"DRC-2, concentration 2.5",5.57%
same,% inhibition ApPOL 90',"DRC-2, concentration 5",8%
same,% inhibition ApPOL 90',"DRC-2, concentration 10",26%
same,% inhibition ApPOL 90',"DRC-2, concentration 20",37%
same,% inhibition ApPOL 90',"DRC-2, concentration 40",52%
same,% inhibition ApPOL 90',"DRC-2, concentration 80",65%
same,% inhibition apPOL 180',"DRC-2, concentration 2.5",-4.51%
same,% inhibition apPOL 180',"DRC-2, concentration 5",-2.16%
same,% inhibition apPOL 180',"DRC-2, concentration 10",17%
same,% inhibition apPOL 180',"DRC-2, concentration 20",32%
same,% inhibition apPOL 180',"DRC-2, concentration 40",49%
same,% inhibition apPOL 180',"DRC-2, concentration 80",64%
same,DNA Pol,"primary screen value, DNA Pol",40
"Cn1nc(-c2nc(-c3ccccc3)no2)c2c1CCN(C(=O)Cc1cccs1)C2 [Molecule 58, O=C(N1CCc2c(C1)c(nn2C)c1onc(n1)c1ccccc1)Cc1cccs1]",DNA Pol,"186 hits, DNA Pol (screen value), unit not given",38
same,DNA Pol,"'DNA Pol' (screen value), unit not given",38
same,% inhibition Apo pol 10' 2.5,"DRC-1, read at 10', concentration 2.5",10%
same,% inhibition Apo pol 10' 5,"DRC-1, read at 10', concentration 5",10%
same,% inhibition Apo pol 10' 10,"DRC-1, read at 10', concentration 10",35%
same,% inhibition Apo pol 10' 20,"DRC-1, read at 10', concentration 20",48%
same,% inhibition Apo pol 10' 40,"DRC-1, read at 10', concentration 40",65%
same,% inhibition Apo pol 10' 80,"DRC-1, read at 10', concentration 80",65%
same,% inhibition Apol 90' 2.5,"DRC-1, read at 90', concentration 2.5",-0.451%
same,% inhibition Apol 90' 5,"DRC-1, read at 90', concentration 5",2.41%
same,% inhibition Apol 90' 10,"DRC-1, read at 90', concentration 10",21%
same,% inhibition Apol 90' 20,"DRC-1, read at 90', concentration 20",37%
same,% inhibition Apol 90' 40,"DRC-1, read at 90', concentration 40",58%
same,% inhibition Apol 90' 80,"DRC-1, read at 90', concentration 80",67%
same,% inhibition apPOL 180' 2.5,"DRC-1, concentration 2.5",-6%
same,% inhibition apPOL 180' 5,"DRC-1, concentration 5",-3.68%
same,% inhibition apPOL 180' 10,"DRC-1, concentration 10",9%
same,% inhibition apPOL 180' 20,"DRC-1, concentration 20",21%
same,% inhibition apPOL 180' 40,"DRC-1, concentration 40",45%
same,% inhibition apPOL 180' 80,"DRC-1, concentration 80",62%
same,% inhibition Apo pol 5',"DRC-2, concentration 5",10%
same,% inhibition Apol 40',"DRC-2, concentration 2.5",9%
same,% inhibition ApPOL 90',"DRC-2, concentration 40",54%
same,% inhibition ApPOL 90',"DRC-2, concentration 80",54%
same,% inhibition Apo pol 5' 2.5,"DRC-2, read at 5', concentration 2.5",7.55%
same,% inhibition Apo pol 5' 5,"DRC-2, read at 5', concentration 5",10%
same,% inhibition Apo pol 5' 10,"DRC-2, read at 5', concentration 10",18%
same,% inhibition Apo pol 5' 20,"DRC-2, read at 5', concentration 20",27%
same,% inhibition Apo pol 5' 40,"DRC-2, read at 5', concentration 40",28%
same,% inhibition Apo pol 5' 80,"DRC-2, read at 5', concentration 80",16%
same,% inhibition Apol 40' 2.5,"DRC-2, read at 40', concentration 2.5",9%
same,% inhibition Apol 40' 5,"DRC-2, read at 40', concentration 5",13%
same,% inhibition Apol 40' 10,"DRC-2, read at 40', concentration 10",24%
same,% inhibition Apol 40' 20,"DRC-2, read at 40', concentration 20",39%
same,% inhibition Apol 40' 40,"DRC-2, read at 40', concentration 40",51%
same,% inhibition Apol 40' 80,"DRC-2, read at 40', concentration 80",47%
same,% inhibition ApPOL 90' 2.5,"DRC-2, read at 90', concentration 2.5",7.37%
same,% inhibition ApPOL 90' 5,"DRC-2, read at 90', concentration 5",11%
same,% inhibition ApPOL 90' 10,"DRC-2, read at 90', concentration 10",23%
same,% inhibition ApPOL 90' 20,"DRC-2, read at 90', concentration 20",40%
same,% inhibition ApPOL 90' 40,"DRC-2, read at 90', concentration 40",54%
same,% inhibition ApPOL 90' 80,"DRC-2, read at 90', concentration 80",54%
same,% inhibition apPOL 180' 2.5,"DRC-2, concentration 2.5",3.22%
same,% inhibition apPOL 180' 5,"DRC-2, concentration 5",6%
same,% inhibition apPOL 180' 10,"DRC-2, concentration 10",15%
same,% inhibition apPOL 180' 20,"DRC-2, concentration 20",31%
same,% inhibition apPOL 180' 40,"DRC-2, concentration 40",52%
same,% inhibition apPOL 180' 80,"DRC-2, concentration 80",56%
same,% inhibition Apo pol 10',"first dose-response, concentration 2.5",10%
same,% inhibition Apo pol 10',"first dose-response, concentration 5",10%
same,% inhibition Apo pol 10',"first dose-response, concentration 40",65%
same,% inhibition Apo pol 10',"first dose-response, concentration 80",65%
same,% inhibition Apol 90',[1],21%
same,% inhibition apPOL 180',[1],9%
same,% inhibition apPOL 180',"first dose-response, concentration 20",21%
